Reference: patent US9221827B2, “Antimicrobial compounds and methods of making and using the same” (Melinta Therapeutics, Inc., priority 2011, dated 2015)

Tested on: Escherichia coli strain ATCC25922
Assay: standard microdilution assay to determine minimum inhibitory concentrations (MICs)
Assay type: cell-based
Settings: Escherichia coli strain ATCC25922, microdilution
Method in brief: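 Broth microdilution per CLSI (M7-A8/M100-S20), 100 μl final volume, with reference-strain quality control; MIC is the lowest inhibitory concentration. Scored "+"/"−" against a 16 micrograms/ml cutoff, "N/A" where unavailable.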

Row | SMILES | E. coli ATCC25922 MIC
1 | NC(N)=NCCCNCc1ccc(-n2cc3cc(-c4cc(CCCO)ccc4Cl)[nH]c3nc2=O)cc1 [Compound 82] | + (a “+” indicates that the compound has an MIC value of 16 micrograms/ml or less)
2 | N=C(N)NCCCNCc1ccc(-n2cc3cc(-c4cc(CCCCN)cc(C5CNC5)c4)[nH]c3nc2=O)cc1 [Compound 4] | + (a “+” indicates that the compound has an MIC value of 16 micrograms/ml or less)
3 | N=C(N)NCCCNCc1ccc(-c2c[nH]c(NC(=O)Nc3cc(C(F)F)ccc3OCCCN)nc2=O)cc1 [Compound 188] | + (a “+” indicates that the compound has an MIC value of 16 micrograms/ml or less)
4 | N=C(N)NCCCNCc1ccc(-n2cc3cc(-c4cc(CCCCN)cc(C5CC5)c4)[nH]c3nc2=O)cc1 [Compound 18] | + (a “+” indicates that the compound has an MIC value of 16 micrograms/ml or less)
5 | N=C(N)NCCCNCc1ccc(-n2cc3cc(-c4cc(CCCCN)cc([S+]([O-])C(F)(F)F)c4Cl)[nH]c3nc2=O)cc1 (stereo not shown) [Compound 220] | + (a “+” indicates that the compound has an MIC value of 16 micrograms/ml or less)
6 | C[C@@H](CN)CN1C[C@H](NC(=O)Nc2nc(=O)c(-c3ccc(CNCCCNC(=N)N)cc3)c[nH]2)C[C@H]1CNCCC1CC1 [Compound 153] | + (a “+” indicates that the compound has an MIC value of 16 micrograms/ml or less)
7 | N=C(N)NCCCNCc1ccc(-n2cc3cc(-c4cc(CCCN)cc(Cl)c4F)[nH]c3nc2=O)cc1 [Compound 228] | + (a “+” indicates that the compound has an MIC value of 16 micrograms/ml or less)
8 | CC(C)c1cc(CCCCN)cc(-c2cc3cn(-c4ccc([C@H](C)NCCCNC(=N)N)cc4)c(=O)nc3[nH]2)c1 [Compound 78] | + (a “+” indicates that the compound has an MIC value of 16 micrograms/ml or less)
9 | N=C(N)NCCCNCc1ccc(-n2cc3cc(-c4cc(CCC5(CN)CC5)ccc4F)[nH]c3nc2=O)cc1 [Compound 136] | + (a “+” indicates that the compound has an MIC value of 16 micrograms/ml or less)
10 | C[C@H](NCCCNC(=N)N)c1ccc(-n2cc3cc(-c4cc(CC5CC(N)C5)cc(C(F)(F)F)c4)[nH]c3nc2=O)cc1 (stereo partly shown) [Compound 325] | + (a “+” indicates that the compound has an MIC value of 16 micrograms/ml or less)

Same assay, conditions: Escherichia coli strain ATCC25922, standard microdilution assay

Row | SMILES | E. coli ATCC25922 MIC
11 | C[C@H](N)CCCc1cc(CC(C)(C)C)c(F)c(-c2cc3cn(-c4ccc([C@H](C)NCCCNC(=N)N)cc4)c(=O)nc3[nH]2)c1 [Compound 458] | + (a “+” indicates that the compound has an MIC value of 16 micrograms/ml or less)
12 | CCC[C@H](NCCCNC(=N)N)c1ccc(-n2cc3cc(-c4cc(CCC[C@H](C)N)cc(Cl)c4F)[nH]c3nc2=O)cc1 [Compound 415] | + (a “+” indicates that the compound has an MIC value of 16 micrograms/ml or less)
13 | C[C@H](N)CCCc1cc(OC(F)(F)F)cc(-c2cc3cn(-c4ccc([C@@H](C)N)cc4)c(=O)nc3[nH]2)c1 [Compound 405] | − (a “−” indicates that the compound has an MIC value greater than 16 micrograms/ml)
14 | CC(N)COCc1cc(Cl)c(F)c(-c2cc3cn(-c4ccc(C(C)NCCCNC(=N)N)cc4)c(=O)nc3[nH]2)c1 (stereo not shown) [Compound 376] | + (a “+” indicates that the compound has an MIC value of 16 micrograms/ml or less)
15 | CC(NCCCNC(=N)N)c1ccc(-n2cc3cc(-c4cc(CCC5CC(N)C5)cc(Cl)c4F)[nH]c3nc2=O)cc1 (stereo not shown) [Compound 384] | + (a “+” indicates that the compound has an MIC value of 16 micrograms/ml or less)
16 | CC[C@H](NCCCNC(=N)N)c1ccc(-n2cc3cc(-c4cc(CCC[C@H](C)N)cc(Cl)c4F)[nH]c3nc2=O)cc1 [Compound 392] | + (a “+” indicates that the compound has an MIC value of 16 micrograms/ml or less)
